These are literature values, as cited in patent publication US7709454B2, “Methods and compositions for inhibiting tumorigenesis” (New York University, priority 1997, dated 2010).

Read-outs that look alike come from different tables or passages of the source.

The test system of series [1] is MMTV-v-H-RAS transgenic mice/Mammary, salivary Carcinoma. The following applies: cited from earlier work.
Series [2] deals with MMTV-TGFa/neu transgenic Mice/mammary tumors. The following applies: 40 mg/kg/d; cited from earlier work.
The conditions of series [3]: cell type not given; cited from earlier work.
Series [4] deals with MMTV-N-RAS^N transgenic Mice/lymphoid and mammary tumors. The following applies: 40 mg/kg/d; cited from earlier work.
The subject of series [5] is Athymic mice/colon (DLD-1), H-Ras and K-Ras Fibroblast tumors. The following applies: 10, 50 mg/kg/d; cited from earlier work.
In a further series the test system is Nude mice/colon (DLD-1). To be noted: 40 mg/kg/d; cited from earlier work.
The test system of series [6] is Wap-H-RAS transgenic Mice/mammary, salivary tumors. The following applies: 2, 5, 10, 40 mg/kg/d; cited from earlier work.
For the next series, the system named is NIH3T3. The following applies: 2, 5, 10, 40 mg/kg/d; cited from earlier work.
The test system of series [7] is Nude mice/colon (DLD-1, HCT 116). The following applies: 2, 5, 10, 40 mg/kg/d; cited from earlier work.
Another series has as its system Pancreas (MIA PaCa-2). The following applies: cited from earlier work.
The test system of the next series is Urinary bladder (EJ). The following applies: 40 mg/kg/d; cited from earlier work.
Another series relates to Prostate (DU-145). The following applies: 40 mg/kg/d; cited from earlier work.
For the next series, the system named is Pancreas (HPAF-11). The following applies: 40 mg/kg/d; cited from earlier work.
Another series has as its system Colon (HCT116). The following applies: 40 mg/kg/d; cited from earlier work.
The subject of another series is Pancreas (AsPC-1). To be noted: 40 mg/kg/d; cited from earlier work.
A further series deals with Nude mice/lung (HTB177). The following applies: 40 mg/kg/d; cited from earlier work.
The subject of another series is Pancreas (Hs 700T). The following applies: 40 mg/kg/d; cited from earlier work.
In the next series the test system is Nude mice/lung (A549). To be noted: 40 mg/kg/d; cited from earlier work.

In the case of `CC[C@H](C)[C@@H](CO[C@@H](Cc1ccccc1)C(=O)N[C@@H](CCS(C)(=O)=O)C(=O)OC(C)C)NC[C@@H](N)CS` [L-744,832], the “tumor mean growth rate in the presence of the Ftase inhibitor” value in [1] (10-40 mg/kg/d) was −5.4 vs 16.7 mm3/day; in series [2], −7.4 vs 19 mm3/day; in series [4], −0.7 vs 28.3 mm3/day. Besides, in [1] (mammary and salivary carcinomas in MMTV-v-Ha-Ras mice), the tumor response entry is recorded as “induced regression”. Further, the IC50 (as a rule, the concentration at which inhibition is half-maximal) in series [3] is 1 to 10 µM.
As to `O=C(Cc1cc[n+]([O-])cc1)N1CCN(C2c3ccc(Cl)cc3CCc3cc(Br)cnc32)CC1` (centres unmarked) [SCH59228], the “GROWTH INHIBITION” value in [5] was more than 90%.
As to `NC(=O)N1CCC(CC(=O)N2CCC([C@H]3c4ncc(Br)cc4CCc4cc(Cl)cc(Br)c43)CC2)CC1` [SCH66336], the “GROWTH INHIBITION” value in the series on Nude mice/colon (DLD-1) was 76%; in [6], 67%-86%; in the series on NIH3T3 it was 100%; in series [7], 76%; with Pancreas (MIA PaCa-2) (40 mg/kg/d, MIA PaCa-2), 78%; in the series on Pancreas (MIA PaCa-2) (2, 5, 10, 40 mg/kg/d), 75%. Besides, the “GROWTH INHIBITION” value was 100% in the series with Urinary bladder (EJ); 86% in the series on Prostate (DU-145); 67% in the series on Pancreas (HPAF-11); 84% with Colon (HCT116); 72% with Pancreas (AsPC-1); 83% in the series with Nude mice/lung (HTB177). The “GROWTH INHIBITION” value in the series with Pancreas (Hs 700T) is 67%; in the series on Nude mice/lung (A549), 70%.
